The values below come from paper PMC7926980, “The Antiproliferative and Apoptotic Effect of a Novel Synthesized S-Triazine Dipeptide Series, and Toxicity Screening in Zebrafish Embryos” (Molecules, 2021).

The test system of one data set is MCF-7 cells. The data set can be described thus: Annexin V-FITC/PI apoptotic assay by flow cytometry. The class given is cell-based, human. As to conditions: 2 µM, 48 h; control 8.3%. The procedure: In order to determine the capacity of compound 3a to induce apoptosis, an Annexin V-FITC/PI dual staining assay was performed on the MCF-7 cells by flow cytometry.
Flow cytometry using Annexin V and propidium iodide (PI) was performed in order to detect apoptotic cell death. MCF-7 cells were seeded at a density of 1 × 10^5 cells/well, treated with the vehicle (0.1% (v/v) EtOH) or compound 3a (2 µM), and incubated for 48 h. The cells were then harvested and washed twice in 1X binding buffer, and incubated in the dark for 30 min on ice in Annexin V-containing binding buffer [1:100]. They were then re-suspended in PI-containing binding buffer [1:1000]. The samples were analyzed immediately using a BD Accuri flow cytometer, and GraphPad Prism software version 5.01 was used to analyze the data. Four populations were identified during the assay: Annexin V-negative and PI-negative (Q4, healthy cells), Annexin V-positive and PI-negative (Q3, early apoptosis), Annexin V-positive and PI-positive (Q2, late apoptosis), and Annexin V-negative and PI-positive (Q1, necrosis).
Figure 5 Compound 3a potently induces apoptosis in breast cancer MCF-7 cells (Annexin V/PI Fluorescence-activated cell sorting (FACS)). (A) Flow cytometry analysis of the effect of compound 3a on MCF-7 cells. […] (B) The quantitative analysis of the apoptosis. […]

For a further data set, the system named is HEK-293 cells. Put plainly: MTT cell viability assay, non-tumorigenic HEK-293. The class given is cell-based. The conditions noted are these: Homo sapiens, HEK293, 72 h, non-tumorigenic cell line. The procedure:
Additional assays were run with 3a, the most promising compound. Its toxicity was evaluated using HEK-293 (normal human embryonic kidney), which is a non-tumorigenic cell line.
In order to calculate the relative IC50 values, the antiproliferative effect of compounds 3a–o was tested in three cancer cell lines (MCF-7, MDA-MB-231, HCT-116) and normal epithelial embryonic kidney cells (HEK-293) using the MTT viability assay. The cells were seeded in 96-well plates at a density of 10 × 10^3 cells/mL, in a total volume of 200 µL per well. In total, 0.1% DMSO was used as a vehicle control. After 24 h, the cells were treated with 2 µL of the test compound, which had been pre-prepared as a stock solution to furnish the concentration range of the study (0.01–100 µM), and re-incubated for 72 h. The culture medium was then removed, and the cells were washed with phosphate-buffered saline (PBS), and 100 µL MTT was added (for a final concentration of 5 mg/mL MTT). The cells were incubated for 4 h in darkness at 37 °C. Next, 200 µL DMSO was added to each well, and the cells were maintained at room temperature in darkness for 20 min. The absorbance was detected with a microplate reader at 570 nm. The results were expressed as a percentage of viability relative to the vehicle control (100%). […]

For another data set, the system named is zebrafish embryos. The data set can be described thus: Zebrafish embryo imaging (morphology, teratogenicity). The conditions noted are these: 1 mM, embryos at 48 hpf, versus untreated embryos. It counts as in vivo. From the text: The treated embryos had cardiac edema, craniofacial defects, tail lesions, and a delay in embryonic development. These observations are consistent with the findings in the literature.
A Zeiss Observer D1 inverted microscope using Zeiss ZEN software was used to capture the images of the live zebrafish embryos.
Figure 6 Representative images of the zebrafish embryos 48 hpf (A) control or (B) treated.

Molecules are shown by their SMILES. pIC50: −log10 of the molar value.

For the molecule `COC(=O)CNC(=O)CNc1nc(Nc2ccccc2)nc(N2CCOCC2)n1` [Compound 3a, Methyl (4-morpholino-6-(phenylamino)-1,3,5-triazin-2-yl) glycylglycinate], the “Annexin V-positive cells (total apoptotic cells)” value in the data set with MCF-7 cells turned out to be 37.4%. In the data set with HEK-293 cells, the pIC50 is < 4.30. In addition, the “embryonic abnormality or morphological difference in zebrafish embryo images” value with zebrafish embryos is “did not indicate any embryonic abnormality or morphological difference”.

By pIC50 is commonly meant −log10 of the IC50, conventionally taken in molar units.
